{"source": "paper PMC6934184", "about": "“Selective DNA-PKcs inhibition extends the therapeutic index of localized radiotherapy and chemotherapy” (The Journal of Clinical Investigation, 2019)", "biological_target": "T1, ALK (Homo sapiens, UniProt Q9UM73)", "T1 construct": "purchased Thermo Fisher Scientific (Life Technologies) SelectScreen", "T1 sequence (Q9UM73 19-1620)": "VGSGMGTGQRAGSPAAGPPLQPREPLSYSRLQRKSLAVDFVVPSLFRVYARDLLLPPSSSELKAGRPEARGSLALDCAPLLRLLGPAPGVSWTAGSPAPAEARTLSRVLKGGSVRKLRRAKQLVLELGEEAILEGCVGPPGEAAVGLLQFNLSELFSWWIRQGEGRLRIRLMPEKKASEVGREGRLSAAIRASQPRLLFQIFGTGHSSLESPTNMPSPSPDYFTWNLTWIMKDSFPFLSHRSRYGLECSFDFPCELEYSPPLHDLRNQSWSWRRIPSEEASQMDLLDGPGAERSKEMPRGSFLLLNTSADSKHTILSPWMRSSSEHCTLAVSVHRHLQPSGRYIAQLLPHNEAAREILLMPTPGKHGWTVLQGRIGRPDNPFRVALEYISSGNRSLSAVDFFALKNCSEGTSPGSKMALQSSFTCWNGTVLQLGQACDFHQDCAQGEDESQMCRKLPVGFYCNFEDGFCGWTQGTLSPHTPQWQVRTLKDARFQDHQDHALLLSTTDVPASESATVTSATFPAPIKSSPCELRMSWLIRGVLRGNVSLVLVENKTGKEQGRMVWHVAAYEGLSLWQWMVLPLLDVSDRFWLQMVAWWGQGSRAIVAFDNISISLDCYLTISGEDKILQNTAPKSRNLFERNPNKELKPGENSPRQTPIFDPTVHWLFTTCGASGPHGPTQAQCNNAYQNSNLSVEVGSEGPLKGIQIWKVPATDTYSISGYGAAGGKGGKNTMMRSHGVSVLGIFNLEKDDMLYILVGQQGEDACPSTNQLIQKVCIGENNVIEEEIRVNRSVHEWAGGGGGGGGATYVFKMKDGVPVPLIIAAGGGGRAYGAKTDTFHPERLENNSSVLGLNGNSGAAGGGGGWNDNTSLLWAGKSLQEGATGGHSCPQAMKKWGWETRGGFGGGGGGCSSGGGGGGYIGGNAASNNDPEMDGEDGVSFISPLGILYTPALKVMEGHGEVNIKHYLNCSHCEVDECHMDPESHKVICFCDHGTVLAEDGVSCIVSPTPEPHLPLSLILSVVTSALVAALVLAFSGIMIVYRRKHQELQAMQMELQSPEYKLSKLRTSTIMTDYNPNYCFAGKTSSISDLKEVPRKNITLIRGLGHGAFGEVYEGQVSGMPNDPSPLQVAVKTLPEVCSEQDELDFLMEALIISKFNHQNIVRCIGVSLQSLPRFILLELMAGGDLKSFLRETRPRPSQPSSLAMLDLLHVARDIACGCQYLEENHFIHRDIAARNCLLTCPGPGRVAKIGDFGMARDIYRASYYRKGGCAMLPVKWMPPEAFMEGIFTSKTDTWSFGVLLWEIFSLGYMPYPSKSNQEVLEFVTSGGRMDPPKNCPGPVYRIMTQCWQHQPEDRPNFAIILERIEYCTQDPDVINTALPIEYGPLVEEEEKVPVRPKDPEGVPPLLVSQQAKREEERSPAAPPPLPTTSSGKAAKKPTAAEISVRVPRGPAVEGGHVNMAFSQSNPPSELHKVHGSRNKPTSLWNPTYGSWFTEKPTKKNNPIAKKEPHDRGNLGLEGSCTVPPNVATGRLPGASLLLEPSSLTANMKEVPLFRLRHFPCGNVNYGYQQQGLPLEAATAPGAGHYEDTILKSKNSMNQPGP", "test": "SelectScreen Z'LYTE", "assay_type": "biochemical", "procedure,_shortened": "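Compound tested in SelectScreen activity assays, Z'LYTE for CSF1R, CDK1/cyclin B and MAP2K6 and Adapta for CAMK1. ATP for CAMK1 was listed as 10, and Km app was used for CSF1R. Results are expressed in percent.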"}
{"smiles": "CN(C(=O)CN1CCOCC1)c1ccc2sc3c(-c4cccc5c(=O)cc(N6CC7CCC(C6)O7)oc45)cccc3c2c1", "note": "[NU5455]", "values": [{"measurement": "inhibition at 1 µM", "result": 17.3, "unit": "%"}]}
